Assay results taken from US12303497B2, “Anti-androgens for the treatment of metastatic castration-sensitive prostate cancer” (priority 2019, dated 2025).

Tests used:
CYP2C9 = CYP2C9 (Homo sapiens, UniProt P11712); test: In vitro CYP inhibition
[1] = Solubility in aqueous media; assay type: physicochemical; settings: aqueous media over a wide range of pH values
Text: The chemical name is (4-[7-(6-Cyano-5-trifluoromethylpyridin-3-yl)-8-oxo-6-thioxo-5,7-diazaspiro[3.4]oct-5-yl]-2-fluoro-N-methylbenzamide). Apalutamide is a white to slightly yellow powder.

CYP2C9, sequence (P11712 whole entry): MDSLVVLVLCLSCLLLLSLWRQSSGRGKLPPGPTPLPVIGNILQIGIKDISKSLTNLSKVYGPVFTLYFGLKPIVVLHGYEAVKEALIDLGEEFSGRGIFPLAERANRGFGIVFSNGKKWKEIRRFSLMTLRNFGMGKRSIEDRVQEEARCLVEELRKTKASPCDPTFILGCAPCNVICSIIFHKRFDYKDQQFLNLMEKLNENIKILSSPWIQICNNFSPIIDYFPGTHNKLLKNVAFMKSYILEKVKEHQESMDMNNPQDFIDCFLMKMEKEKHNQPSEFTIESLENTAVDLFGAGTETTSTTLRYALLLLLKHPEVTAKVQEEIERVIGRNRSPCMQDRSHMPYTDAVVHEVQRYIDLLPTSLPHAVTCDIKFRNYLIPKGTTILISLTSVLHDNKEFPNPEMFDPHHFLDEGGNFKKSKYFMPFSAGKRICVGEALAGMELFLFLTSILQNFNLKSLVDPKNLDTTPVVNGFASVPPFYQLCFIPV

With `CNC(=O)c1ccc(N2C(=S)N(c3cnc(C#N)c(C(F)(F)F)c3)C(=O)C23CCC3)cc1F` [Apalutamide, 4-[7-(6-cyano-5-trifluoromethylpyridin-3-yl)-8-oxo-6-thioxo-5,7-diazaspiro[3.4]oct-5-yl]-2-fluoro-N-methylbenzamide] the CYP2C9 inhibition (CYP2C9) was “weak inhibitors” and the Solubility [1] was “practically insoluble”.
